# In patent US7884067B2, “Peptides derived from cadherin and methods of use thereof” (Mount Sinai School of Medicine of New York University, priority 2001, dated 2011):
# Columns and labels:
# [1] = test system: CRE-dependent transactivation; assay: CRE-dependent transactivation in N2a cells; format: cell-based, mouse; design: dose or concentration left out as unconfirmed; conditions: 16 hours, vs DMSO, FIG. 10A
# Method: (§1) Transactivation assays. CRE-dependent transactivation was measured in the absence or presence of overexpression of PKA (pFC-PKA, Stratagene) by cotransfection with CRE-luciferase reporter plasmid (pCRE-Luc, Stratagene) and pSV-β-galactosidase vector (Promega) to evaluate transfection efficiency. CHOP-mediated transactivation was measured by cotransfection with the Gal4-fusion trans-activator plasmids (pFA-CHOP and pFR-Luc, Stratagene). 30 hours after transfection, luciferase and β-galactosidase activities were determined following manufacturer's instructions using a TD-20/20 luminometer (Turner Designs) and a DU-64 spectrophotometer (Beckman). Values were normalized to β-galactosidase activity and protein concentration.
# N2a cells co-transfected with plasmids pCRE-luc, pFC-PKA, and pSV-β-galactosidase were incubated for 16 hours with DMSO or with L-685,458 ([…]) and CRE-dependent transactivation was measured as described above. […] Total RNA isolated from N2a cells treated either with DMSO or with L-685,458, was analyzed by semiquantitative RT-PCR using specific primers for c-fos and gapdh. The graph in FIG. 10B represents the relative abundance of c-fos-specific PCR products following quantitation of the mRNA signals shown in the upper panel. […]
# [2] = test system: CRE-dependent transactivation; assay: CRE-dependent luciferase activity in HEK293 cultures stably transfected with WT-PS1; format: cell-based, human; conditions: presence of L-685,458, FIG. 9B
# Method: as §1
# HEK293 cultures stably transfected either with vector or WT-PS1 were co-transfected with pFC-PKA, pCRE-Luc, and pSV-β-galactosidase in the presence or absence of L-685,458 and then processed for CRE-dependent luciferase activity. Data in FIGS. 9A and B are the mean+/−s.e. of 4 experiments normalized to β-galactosidase activity and protein concentration. *, P<0.05; ***, P<0.001 (Student's t test).
# [3] = test system: E-cadherin/catenin cytoskeletal complex; assay: Ionomycin-induced CAJ disassembly in A431 cells, subcellular fractionation and Western blot; format: cell-based, human; conditions: 30 minutes preincubation with L-685,458, then ionomycin
# Method: Subcellular fractionation. Confluent A431 cells (one 100 mm dish) were rinsed and scraped with 4° C. phosphate-buffered saline (PBS). Cells were then placed into 1 ml of buffer A (20 mM Tris-HCl [pH 7.5], 0.25 M sucrose, 10 mM EGTA, 2 mM EDTA, 1× Complete protease inhibitor cocktail, Roche), passed through a 27 gauge needle 10 times, and the obtained cell lysate was centrifuged at 500×g for 10 min at 4° C. The supernatant was then centrifuged at 120,000×g for 45 min at 4° C. to separate the cytosolic and crude membrane fractions. The pellet (crude membrane fraction) was washed twice with buffer A and resuspended by sonication in […] of buffer A containing 1% Triton X-100. The suspension was incubated at 4° C. for 30 min and then centrifuged at 120,000×g for 45 min at 4° C. to separate the membrane and Triton X-100-insoluble fractions. The pellet (Triton X-100-insoluble fraction) was washed twice with buffer A and solubilized by sonication in RIPA buffer. […] of proteins from the different fraction were analyzed by SDS-PAGE.
# In stable cell-cell adhesion, the E-cadherin/β-catenin complex of the CAJ is anchored to the actin cytoskeleton via catenin and this association is manifested by the insolubility of the complex components in Triton X-100 (Baki et al., (2001)). Induction of apoptosis or calcium influx disrupts cadherin-mediated cell-cell adhesion by cleaving cadherin and disassembling the CAJ complexes. To determine whether the γ-secretase cleavage of E-cadherin is involved in the CAJ disassembly, calcium influx was induced with ionomycin (10 μM) in A431 cells preincubated for 30 minutes in the absence or presence of the γ-secretase inhibitor L-685,458. Cell extracts were fractionated, and analyzed on Western blots with antibodies against cytoplasmic E-cadherin C36 or β- and α-catenins. […] In addition, L-685,458 delayed the ionomycin-induced decrease of cytoskeletal β-catenin and α-catenin and inhibited their release to the soluble cytosol.
# N-cadherin = assay: In vitro ε-cleavage assay, membranes from embryonic fibroblast cultures (WT / PS1 P264L knock-in study); format: biochemical, mouse; conditions: FIG. 13A lanes 1 and 2
# Method: In vitro γ-secretase-like ε-cleavage assay. Cells were washed in PBS, resuspended in 1 ml of 4° C. hypotonic buffer (10 mM MOPS, pH 7.0, 10 mM KCl) and homogenized on ice. A post-nuclear supernatant was prepared by centrifugation at 1000×g for 15 minutes at 4° C. Crude membranes were isolated from the post-nuclear supernatant by centrifugation at 16,000×g for 40 minutes at 4° C. The membranes were then resuspended in […] of assay buffer (150 mM sodium citrate, pH 6.4, 1× Complete protease inhibitor cocktail), and incubated at 37° C. for 2 hours. Samples were either analyzed directly by WB or separated into pellet (P100) and supernatant (S100) fractions by ultracentrifugation for 1 hour at 100,000×g at 4° C. The S100 and P100 fractions were then analyzed by WB.
# To investigate the consequences of FAD mutations in a physiologically relevant system in the absence of PS1 overexpression, the ε-cleavage of N-cadherin was examined in two independent embryonic fibroblast clones derived from a gene-targeted (knock-in) mouse homozygous for the human PS1 FAD mutation P264L (Siman et al. (2000) J. Neurosci. 20:8717-8726). Expression of the knock-in mutant PS1 allele is under the control of the endogenous PS1 gene. These models are distinct from overexpressing transgenic models because the mutant gene is expressed at normal levels, similar to those observed in WT models (FIG. 13, panel d). […]
smiles,measurement,setting,value
"CC(C)C[C@H](NC(=O)[C@H](Cc1ccccc1)C[C@@H](O)[C@H](Cc1ccccc1)NC(=O)OC(C)(C)C)C(=O)N[C@@H](Cc1ccccc1)C(N)=O [L-685,458]",CRE-dependent transactivation,[1],increased
same,decrease of CRE-dependent transactivation caused by PS1 overexpression,[2],reversed
same,ionomycin-induced decrease of cytoskeletal β-catenin and α-catenin,[3],delayed
same,ionomycin-induced degradation of the full length E-cadherin,[3],partially inhibited
same,ionomycin-induced metabolism of cytoskeletal E-Cad/CTF1,[3],blocked
same,production of soluble cytosolic E-Cad/CTF2,[3],abolished
same,release of β-catenin and α-catenin to the soluble cytosol,[3],inhibited
same,production of N-Cad/CTF2,N-cadherin,sensitive
